From patent US5543406A, “Inhibitors of 5-α-testosterone reductase” (priority 1994, dated 1996)

Assays:
[1] = biological target: T1, Steroid 5-α-Reductase (Homo sapiens, UniProt P31213); test: Steroid 5-α-reductase in vitro assay, human prostate microsomes (BPH patients); type: biochemical; settings: human prostatic microsomes; 100 nM [3H]-testosterone, 1 mM NADPH, 60 minutes at 37° C.
T1 construct: microsomes derived from prostate tissue of benign prostatic hypertrophy (BPH) patients; from tissue; host or cells: prostate tissue of BPH patients, microsomes
T1 sequence (P31213 1-254): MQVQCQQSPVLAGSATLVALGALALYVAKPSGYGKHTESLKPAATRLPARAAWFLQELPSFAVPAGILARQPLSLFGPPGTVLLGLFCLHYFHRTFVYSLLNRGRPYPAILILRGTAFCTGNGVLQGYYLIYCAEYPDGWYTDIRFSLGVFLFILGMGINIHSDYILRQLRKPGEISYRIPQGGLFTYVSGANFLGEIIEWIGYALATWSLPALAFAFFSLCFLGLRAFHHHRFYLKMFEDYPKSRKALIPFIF

[2] = biological target: Steroid 5-α-Reductase; test: Steroid 5-α-reductase in vitro assay, rat prostate microsomes; type: biochemical; settings: rat prostatic microsomes; 100 nM [3H]-testosterone, 1 mM NADPH, 60 minutes at 37° C.; read-out: ID50 Rat

Structure (SMILES)	IC50 [1] [nM]	IC50 [2] [nM]
CC(C)N(C(=O)[C@H]1CC[C@H]2[C@@H]3CN(C)C4=CC(=O)CC[C@]4(C)[C@H]3CC[C@]12C)C(C)C [Compound 18, 17β-N,N-Diisopropylcarbamoyl-6-methyl-6-azaandrost-4-en-3-one]	< 10	10 to 100
CON(C)C(=O)[C@H]1CC[C@H]2[C@@H]3CNC4=CC(=O)CC[C@]4(C)[C@H]3CC[C@]12C [Compound 21, 17β-N-Methoxy-N-methylcarbamoyl-6-azaandrost-4-en-3-one]	< 10	100 to 1000
C[C@]12CC[C@H]3[C@@H](CNC4=CC(=O)CC[C@@]43C)[C@@H]1CC[C@@H]2C(=O)N1CCOCC1 [Compound 23, 17β-N-Morpholinocarbamoyl-6-azaandrost-4-en-3-one]	10 to 100	100 to 1000
CCN(CC)C(=O)[C@H]1CC[C@H]2[C@@H]3CN(C)C4=CC(=O)C=C[C@]4(C)[C@H]3CC[C@]12C [Compound 27, 17β-N,N-Diethylcarbamoyl-6-methyl-6-azaandrost-1,4-dien-3-one]	10 to 100	100 to 1000
CC(C)(C)NC(=O)[C@H]1CC[C@H]2[C@@H]3CNC4=CC(=O)C=C[C@]4(C)[C@H]3CC[C@]12C [Compound 28, 17β-N-t-Butylcarbamoyl-6-azaandrost-1,4-dien-3-one]	10 to 100	100 to 1000
CN1C[C@H]2[C@@H]3CC[C@H](C(=O)NC45CC6CC(CC(C6)C4)C5)[C@@]3(C)CC[C@@H]2[C@@]2(C)C=CC(=O)C=C12 [Compound 31, 17β-N-1-Adamantylcarbamoyl-6-methyl-6-azaandrost-1,4-dien-3-one]	< 10	10 to 100
CC1=C2NC[C@H]3[C@@H]4CC[C@H](C(=O)NC56CC7CC(CC(C7)C5)C6)[C@@]4(C)CC[C@@H]3[C@@]2(C)CCC1=O [Compound 56, 17β-N-1-Adamantylcarbamoyl-6-azaandrost-4-methyl-4-en-3-one]	10 to 100	< 10
CC1=C2N(C)C[C@H]3[C@@H]4CC[C@H](C(=O)NC56CC7CC(CC(C7)C5)C6)[C@@]4(C)CC[C@@H]3[C@@]2(C)CCC1=O [Compound 57, 17β-N-1-Adamantylcarbamoyl-6-methyl-6-azaandrost-4-methyl-4-en-3-one]	10 to 100	< 10
C[C@]12CC[C@H]3[C@@H](CNC4=CC(=O)CC[C@@]43C)[C@@H]1CC[C@@H]2C(=O)NC(c1ccccc1)c1ccccc1 [Compound 58, 17β-N-Diphenylmethylcarbamoyl-6-azaandrost-4-en-3-one]	< 10	10 to 100
C[C@]12CC[C@H]3[C@@H](CNC4=CC(=O)CC[C@@]43C)[C@@H]1CC[C@@H]2C(=O)NCC1CC2CCC1C2 (stereo partly drawn) [Compound 60, 17β-N-exo-2-Norbornylmethylcarbamoyl-6-azaandrost-4-en-3-one]	10 to 100	< 10
CC1=C2NC[C@H]3[C@@H]4CC[C@H](C(=O)NC(C)(C)C)[C@@]4(C)CC[C@@H]3[C@@]2(C)CCC1=O [Compound 62, 17β-N-t-Butylcarbamoyl-6-azaandrost-4-methyl-4-en-3-one]	10 to 100	10 to 100
C[C@]12CC[C@H]3[C@@H](CNC4=CC(=O)CC[C@@]43C)[C@@H]1CC[C@@H]2C(=O)OC1C2CC3CC(C2)CC1C3 (stereo partly drawn) [Compound 73, 17β-Carbo-(2-adamantyl)-oxy-6-azaandrost-4-en-3-one]	< 10	< 10
CCN(CC)C(=O)[C@H]1CC[C@H]2[C@@H]3CNC4=CC(=O)C(C)C[C@]4(C)[C@H]3CC[C@]12C (stereo partly drawn) [Compound 75, 17β-N,N-Diethylcarbamoyl-6-azaandrost-2-(α,β)-methyl-4-en-3-one]	10 to 100	100 to 1000
CCN(CC)C(=O)/C=C/[C@H]1CC[C@H]2[C@@H]3CNC4=CC(=O)CC[C@]4(C)[C@H]3CC[C@]12C [Compound 76, 17β-1-(E)-Acrylyl(N,N-diethyl)amide-6-azaandrost-4-en-3-one]	10 to 100	10 to 100
CCN(CC)C(=O)[C@H]1CC[C@H]2[C@@H]3CCNC4=CC(=O)CC[C@]4(C)[C@H]3CC[C@]12C [Compound 77, 17β-N,N-Diethylcarbamoyl-6-aza-B-homoandrost-4-en-3-one]	10 to 100	100 to 1000

More lines, now with the values ahead:

IC50 [1] [nM]	IC50 [2] [nM]	Structure (SMILES)
10 to 100	100 to 1000	CCN(CC)C(=O)[C@H]1CC[C@H]2[C@@H]3CNC4=CC(=O)C=C[C@]4(C)[C@H]3CC[C@]12C [Compound 6, 17β-N,N-Diethylcarbamoyl-6-azaandrost-1,4-dien-3-one]
< 10	100 to 1000	CCN(CC)C(=O)[C@H]1CC[C@H]2[C@@H]3CNC4=C(Br)C(=O)CC[C@]4(C)[C@H]3CC[C@]12C [Compound 9, 17β-N,N-Diethylcarbamoyl-6-azaandrost-4-bromo-4-en-3-one]
< 10	100 to 1000	CC(C)N(C(=O)[C@H]1CC[C@H]2[C@@H]3CNC4=CC(=O)CC[C@]4(C)[C@H]3CC[C@]12C)C(C)C [Compound 17, 17β-N,N-Diisopropylcarbamoyl-6-azaandrost-4-en-3-one]
< 10	< 10	CN1C[C@H]2[C@@H]3CC[C@H](C(=O)NC45CC6CC(CC(C6)C4)C5)[C@@]3(C)CC[C@@H]2[C@@]2(C)CCC(=O)C=C12 [Compound 20, 17β-N-1-Adamantylcarbamoyl-6-methyl-6-azaandrost-4-en-3-one]
10 to 100	100 to 1000	CN1C[C@H]2[C@@H]3CC[C@H](C(=O)NC(C)(C)C)[C@@]3(C)CC[C@@H]2[C@@]2(C)C=CC(=O)C=C12 [Compound 29, 17β-N-t-Butylcarbamoyl-6-methyl-6-azaandrost-1,4-dien-3-one]
< 10	< 10	C[C@]12CC[C@H]3[C@@H](CNC4=C(Br)C(=O)CC[C@@]43C)[C@@H]1CC[C@@H]2C(=O)NC12CC3CC(CC(C3)C1)C2 [Compound 55, 17β-N-1-Adamantylcarbamoyl-6-azaandrost-4-bromo-4-en-3-one]
< 10	100 to 1000	C[C@]12CC[C@H]3[C@@H](CNC4=CC(=O)CC[C@@]43C)[C@@H]1CC[C@@H]2C(=O)N(c1ccccc1)c1ccccc1 [Compound 59, 17β-N-Diphenylcarbamoyl-6-azaandrost-4-en-3-one]
10 to 100	10 to 100	C[C@]12CC[C@H]3[C@@H](CNC4=CC(=O)CC[C@@]43C)[C@@H]1CC[C@@H]2C(=O)NC1CC2CCC1C2 (stereo partly drawn) [Compound 61, 17β-N-endo-2-Norbornylcarbamoyl-6-azaandrost-4-en-3-one]
< 10	10 to 100	CC1=C2NC[C@H]3[C@@H]4CC[C@H](C(=O)CC(C)C)[C@@]4(C)CC[C@@H]3[C@@]2(C)CCC1=O [Compound 64, 17β-(1-Oxo-3-methylbutyl)-6-azaandrost-4-methyl-4-en-3-one]
< 10	< 10	C[C@]12CC[C@H]3[C@@H](CNC4=CC(=O)CC[C@@]43C)[C@@H]1CC[C@@H]2C(=O)Nc1cccc2cc3ccccc3cc12 [Compound 67, 17β-N-1-Anthracylcarbamoyl-6-azaandrost-4-en-3-one]
< 10	10 to 100	C[C@]12CC[C@H]3[C@@H](CNC4=CC(=O)CC[C@@]43C)[C@@H]1CC[C@@H]2C(=O)OC12CC3CC(CC(C3)C1)C2 [Compound 74, 17β-Carbo-(1-adamantyl)-oxy-6-azaandrost-4-en-3-one]
